Measured values reported in patent US10344061B2, “Peptide exhibiting hair growth promoting activity and/or melanin production promoting activity and use thereof” (CAREGEN CO., LTD., priority 2016, dated 2019).
Ends that are not written are not given here.

Assays:
Format in all cases: cell-based
β-catenin = assay: β-Catenin activity test (western blotting); settings: human hair follicle dermal papilla cells, 15 and 30 minutes, nuclear and cytoplasmic proteins, FIGS. 2a, 2b
Description: (§1) Human hair follicle dermal papilla cells were seeded at a density of 4×10^5 cells/well on 6-well plates, followed by incubation overnight. After changing into serum-free medium, the cells were treated with the peptides, followed by incubation for 15 and 30 minutes, and then the wells were harvested to isolate nuclear and cytoplasmic proteins. Western blotting was performed using β-catenin (Santa Cruz Biotechnology, USA) to compare β-catenin expression patterns.

GSK3β = assay: β-Catenin activity test: GSK3β phosphorylation; settings: human hair follicle dermal papilla cells, 15 and 30 minutes, western blotting; FIGS. 2a, 2b
ERK = assay: p-ERK western blotting; settings: human hair follicle dermal papilla cells, 15 and 30 minutes, FIGS. 3a, 3b
Description: as §1, with “to prepare the cell lysate.” for “to isolate nuclear and cytoplasmic proteins.”, “using PI3K antibodies” for “using β-catenin”, “USA) and phospho-ERK antibody (Cell Signaling Technology, USA)” for “USA)”, “compare protein” for “compare β-catenin”

[1] = system: melanocytes (B16F10 cell line); assay: Melanin measurement assay; settings: 72 hours, intracellular melanin, absorbance 490 nm, FIGS. 9a, 9b
Description: After melanocytes (B16F10 cell line) in 6-well plates were cultured in an incubator at 37° C. for 24 hours, the medium of each plate was removed and exchanged with a fresh medium, followed by treatment with the present peptide with different concentrations. After the incubation for 72 hours, the culture medium was removed, and the cells were taken off and then transferred into 1.5-ml tubes, followed by centrifugation at 13,000 rpm for 3 minutes. The supernatant was removed, and cell pellets were collected to observe melanin. Then, 150 μl of 2 M NaOH was added to the cell pellets to lyse intracellular melanin at 60° C. for 30 minutes. Then, 100 μl of the supernatant obtained from the lysis was added into each well of 96-well plates, and the absorbance was measured at 490 nm.

PI3K = PI3K western blotting; settings: human hair follicle dermal papilla cells, 15 and 30 minutes, FIGS. 3a, 3b
Description: as §1, with “to prepare the cell lysate.” for “to isolate nuclear and cytoplasmic proteins.”, “using PI3K antibodies” for “using β-catenin”, “USA) and phospho-ERK antibody (Cell Signaling Technology, USA)” for “USA)”, “compare protein” for “compare β-catenin”

keratin-14 = assay: Keratin-14 RT-PCR; settings: human hair follicle dermal papilla cells, 24 hours, FIGS. 5a, 5b
Description: (§2) Human hair follicle dermal papilla cells were seeded at a density of 5×10^5 cells/well on 6-well plates, followed by incubation overnight. After changing into serum-free medium, the cells were treated with the peptides, followed by incubation for 24 hours, and then the wells were harvested to isolate RNA. After RNA quantification, cDNA synthesis was conducted using the cDNA synthesis kit (Intron, Korea), followed by PCR using PCR premix (Intron, Korea) and keratin-14 primers, and then electrophoresis was performed on 5% agarose gel to compare the mRNA expression level of the growth factor in respective sample treatment conditions.

Bcl-2 = Bcl-2 western blotting; settings: human hair follicle dermal papilla cells, 24 hours, FIGS. 4a, 4b
Description: (§3) Human hair follicle dermal papilla cells were seeded at a density of 4×10^5 cells/well on 6-well plate, followed by incubation overnight. After changing into serum-free medium, the cells were treated with the peptides, followed by incubation for 24 hours, and then the wells were harvested to prepare cell lysate. Western blotting was performed using Bcl-2 and Bax antibodies (Santa Cruz Biotechnology, USA) to compare protein expression patterns.

Bax = Bax western blotting; settings: human hair follicle dermal papilla cells, 24 hours, FIGS. 4a, 4b
Description: as §3

[2] = system: Human hair follicle dermal papilla cells; assay: DPC proliferation assay (MTT); settings: serum-free medium, 3 days incubation, absorbance 550 nm, FIGS. 1a, 1b
Description: Human hair follicle dermal papilla cells were seeded at a density of 2×10^3 cells/well on 96-well plates, followed by incubation overnight. After changing into serum-free medium, the cells were treated with the peptides, followed by incubation for 3 days, and then the wells were treated with 4 mg/ml MTT solution, followed by reaction for 4 hours. The resulting formazan was solubilized with DNSO, and then the absorbance was measured at 550 nm using a microplate reader.

KGF = KGF RT-PCR; settings: human hair follicle dermal papilla cells, 24 hours, RT-PCR (mRNA); FIG. 6
Description: as §2, with “4×10^5” for “5×10^5”, “plate,” for “plates,”, “respective KGF and VEGF” for “keratin-14”, “levels” for “level”, “factors” for “factor”, “in” for “in respective”

tyrosinase [3] = assay: Melanogenesis-related gene RT-PCR: tyrosinase; settings: B16F10 cell line, 72 hours, FIG. 10
Description: (§4) Melanocytes (B16F10 cell line) were incubated on 6-well culture plates for 24 hours, and were treated with the peptides of the present invention with different concentrations. After RNA was extracted from the cells incubated for 72 hours, cDNA was prepared. PCR was performed by using respective primers specific to MITF and tyrosinase, which are involved in melanogenesis, and the expression changes of the respective genes were observed.

TRP1 = assay: Melanogenesis-related gene RT-PCR: TRP1; settings: B16F10 cell line, 72 hours, FIG. 10 legend
MITF [4] = assay: Melanogenesis-related gene RT-PCR: MITF; settings: B16F10 cell line, 72 hours, FIG. 10
Description: as §4

VEGF = VEGF RT-PCR; settings: human hair follicle dermal papilla cells, 24 hours, RT-PCR (mRNA); FIG. 6
Description: as §2, with “4×10^5” for “5×10^5”, “plate,” for “plates,”, “respective KGF and VEGF” for “keratin-14”, “levels” for “level”, “factors” for “factor”, “in” for “in respective”

TGF-β1 = TGF-β1 RT-PCR; settings: human hair follicle dermal papilla cells, 24 hours, RT-PCR (mRNA); FIG. 7
Description: as §2, with “4×10^5” for “5×10^5”, “plate,” for “plates,”, “TGF-β1” for “keratin-14”, “in” for “in respective”

MSX2 = MSX2 RT-PCR; settings: human hair follicle dermal papilla cells, 24 hours, RT-PCR (mRNA); FIG. 8
Description: as §2, with “4×10^5” for “5×10^5”, “plate,” for “plates,”, “MSX2” for “keratin-14”, “in” for “in respective”

MITF [5] = assay: Melanogenesis-related protein western blotting: MITF; settings: B16F10 cell line, 72-hour incubation, FIG. 11
Description: (§5) Melanocytes (B16F10 cell line) were incubated on 6-well culture plates for 24 hours, and were treated with the peptides of the present invention with different concentrations. After 72-hour incubation, the cells were lysed, and the cells were subjected to western blotting using specific antibodies (two types, both from Santa Cruz Biotechnology, USA) to investigate the expression of MITF and tyrosinase, which are factors involved in melanogenesis.

tyrosinase [6] = assay: Melanogenesis-related protein western blotting: tyrosinase; settings: B16F10 cell line, 72-hour incubation, FIG. 11
Description: as §5

Row | mRNA expression of tyrosinase enzyme (tyrosinase [3]) | Sequence | activity of β-catenin (β-catenin) | phosphorylation level of GSK3β (GSK3β) | phosphorylation of ERK (ERK) | melanogenesis in melanocytes [1] | expression of PI3K (PI3K) | mRNA expression of keratin-14 (keratin-14) | expression of the anti-apoptotic protein Bcl-2 (Bcl-2) | expression of the apoptosis-related protein Bax (Bax) | growth of human hair follicle dermal papilla cells [2] | expression of KGF (KGF) | mRNA expression of TRP1 (TRP1) | mRNA expression of MITF transcriptional factor (MITF [4]) | expression of VEGF (VEGF) | expression of TGF-β1 (TGF-β1) | expression of MSX2 (MSX2) | protein expression of MITF transcription factor (MITF [5]) | protein expression of tyrosinase enzyme (tyrosinase [6])
1 | – | KYLLVHRPYYRR [SEQ ID NO: 2] | increased | increased | increased | increased | increased | increased | increased | decreased | stimulated in a dose-dependent manner | – | – | – | – | – | – | – | –
2 | increased | ACTSSQLRSC (cysteine pairing not given here) [SEQ ID NO: 1] | increased | increased | increased | increased | increased | increased | increased | decreased | stimulated in a dose-dependent manner | increased | increases | increased | increased | increased | increased | increased | increased
